One assay deals with MCF-7 cells. The experiment in a line: Breast Cancer Cell Viability Assay (MCF-7, CellTiter-Glo). The following applies: 5 days' compound exposure; for IC50: Homo sapiens, MCF7, 120 h. It counts as cell-based. Summed up:
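Eleven-point semilog compound series, final 0.3-0.000003 μM, added to overnight-adhered MCF-7 cells (320/well; RPMI, 10% FBS, 20 mM HEPES) for 5 days. Viability read by CellTiter-Glo luminescence, background from medium without cells subtracted, expressed relative to untreated cells.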

The target of a further assay is T1, ER-α (Homo sapiens, UniProt P03372).
T1 sequence (P03372 1-595): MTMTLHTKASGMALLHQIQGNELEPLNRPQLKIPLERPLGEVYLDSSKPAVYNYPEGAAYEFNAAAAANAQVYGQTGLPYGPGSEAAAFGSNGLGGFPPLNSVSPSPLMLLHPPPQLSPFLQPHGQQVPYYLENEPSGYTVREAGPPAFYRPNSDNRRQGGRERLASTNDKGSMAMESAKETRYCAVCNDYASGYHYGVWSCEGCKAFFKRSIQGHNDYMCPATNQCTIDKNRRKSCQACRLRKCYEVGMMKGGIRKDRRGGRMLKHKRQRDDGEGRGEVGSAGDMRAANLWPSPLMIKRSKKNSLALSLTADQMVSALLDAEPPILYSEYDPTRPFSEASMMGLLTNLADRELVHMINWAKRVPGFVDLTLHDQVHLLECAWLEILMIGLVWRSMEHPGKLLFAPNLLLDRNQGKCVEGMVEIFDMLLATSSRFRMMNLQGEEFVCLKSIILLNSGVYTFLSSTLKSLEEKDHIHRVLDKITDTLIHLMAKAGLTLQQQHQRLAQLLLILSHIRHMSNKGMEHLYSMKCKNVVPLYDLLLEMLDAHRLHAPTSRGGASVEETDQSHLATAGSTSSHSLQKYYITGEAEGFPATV
The experiment in a line: Breast Cancer Cell ER-α In Cell Western Assay (SP1). In kind it is cell-based. The settings on record: MCF-7 cells, SP1 antibody, 4 or 24 hr post compound addition; for Emax: MCF7, read-out: ER-α In Cell Western Assay (SP1) Max Response; for DC50: read-out: ER-α In Cell Western Assay (SP1) IC50. The procedure, abridged:
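ER-α protein levels measured by in-cell western with SP1 antibody, ratioed to DRAQ5 DNA signal and given as percent of untreated controls. Compounds added at 0.3–0.000003 μM final (eleven semilog points) to adherent MCF-7 cells in stripped serum; exposure 4 or 24 h before fixation.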

The structures appear in SMILES notation.

Turning to `CC/C(=C(/c1ccc(/C=C/C(=O)O)cc1)c1ccc2c(cnn2C)c1)c1ccccc1Cl` [Compound 145, (E)-3-(4-((E)-2-(2-Chlorophenyl)-1-(1-methyl-1H-indazol-5-yl)but-1-en-1-yl)phenyl)acrylic acid], in the assay with MCF-7 cells, the “MCF7 Viability Assay Max Response” value was “++ (++ = a single % value ≧ 40%)” and the IC50 is no more than 0.1 µM. Moreover, at ER-α, the Emax is no less than 40% and the DC50 was no more than 0.1 µM.
In the case of `Cn1ncc2cc(/C(=C(/c3ccccc3)C3CCC3)c3ccc(/C=C/C(=O)O)cc3)ccc21` [Compound 146, (E)-3-(4-((E)-2-Cyclobutyl-1-(1-methyl-1H-indazol-5-yl)-2-phenylvinyl)phenyl)acrylic acid], in the assay on MCF-7 cells, the “MCF7 Viability Assay Max Response” value was “++ (++ = a single % value ≧ 40%)” and the IC50 was no more than 0.1 µM. For the same compound, at ER-α, the Emax is no less than 40% and the DC50 is no more than 0.1 µM.
`CC/C(=C(/c1ccc(/C=C/C(=O)O)cc1)c1ccc2c(cnn2C)c1)c1ccc(F)cc1Cl` [Compound 147, (E)-3-(4-((E)-2-(2-Chloro-4-fluorophenyl)-1-(1-methyl-1H-indazol-5-yl)but-1-en-1-yl)phenyl)acrylic acid]: in the assay on MCF-7 cells, the “MCF7 Viability Assay Max Response” value was “++ (++ = a single % value ≧ 40%)” and the IC50 was no more than 0.1 µM. Also, on ER-α, the Emax was no less than 40% and the DC50 is no more than 0.1 µM.
As to `CC/C(=C(/c1ccc(/C=C/C(=O)O)cc1)c1ccc2c(cnn2C(F)F)c1)c1ccc(F)cc1Cl` [Compound 148, (E)-3-(4-((E)-2-(2-Chloro-4-fluorophenyl)-1-(1-(difluoromethyl)-1H-indazol-5-yl)but-1-en-1-yl)phenyl)acrylic acid], in the assay on MCF-7 cells, the “MCF7 Viability Assay Max Response” value is listed as “++ (++ = a single % value ≧ 40%)” and the IC50 is no more than 0.1 µM. For the same compound, on ER-α, the Emax is no less than 40% and the DC50 is no more than 0.1 µM.

(Values after patent publication US8455534B2, “Estrogen receptor modulators and uses thereof” (Aragon Pharmaceuticals, Inc., priority 2010, dated 2013).)
